Assay results: patent publication US8481738B2, “Gonadotropin-releasing hormone receptor antagonists and methods relating thereto” (Neurocrine Biosciences, Inc., priority 2007, dated 2013)

Target: T1, human GnRH receptor (Homo sapiens, UniProt P30968)
T1 construct: expressed in transfected cells; host or cells: RBL cells, stably transfected (in general)
T1 sequence (P30968 1-328): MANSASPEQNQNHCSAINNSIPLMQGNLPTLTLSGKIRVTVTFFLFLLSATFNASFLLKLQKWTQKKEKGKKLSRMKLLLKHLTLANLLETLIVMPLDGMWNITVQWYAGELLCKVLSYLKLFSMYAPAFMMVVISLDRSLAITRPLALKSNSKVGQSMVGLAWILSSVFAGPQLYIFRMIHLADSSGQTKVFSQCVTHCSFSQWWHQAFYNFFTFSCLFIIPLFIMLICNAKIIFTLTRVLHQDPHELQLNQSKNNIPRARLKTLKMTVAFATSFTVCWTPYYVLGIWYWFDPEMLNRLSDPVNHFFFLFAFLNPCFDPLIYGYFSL
Assay: Peptide competition radioligand binding displacement assay, human GnRH receptor membranes
Conditions: one or more of the peptide competition human receptor binding assays
Experimental: cDNA's of human, rhesus macaque, rabbit, dog and rat GnRH receptors are cloned into pcDNA3.1 (+) (Invitrogen). Full length sequences of all receptors are confirmed by DNA sequencing. HEK 293, CHO, COS-7, or rat basophilic leukemia (RBL) cells are stably transfected with human, rat, or macaque GnRH receptors and high expressing single cell clones (Bmax≧0.4 pMol/mg membrane protein) are isolated and maintained in Dulbecco's Modified Eagles Medium (DMEM) with following supplements: 10 mM HEPES; 2 mM L-glutamine; 1 mM Sodium Pyruvate; 50 U/mL penicillin, 50 μg/mL streptomycin; 10% Heat-inactivated Fetal Bovine Serum and 200 μg/mL Geneticin (G-418-Sulfate). Non-essential amino acids (0.1 mM) (Irvine Scientific; Santa Ana, Calif.) are included in the RBL cell media.
In general, initial peptide radioligand binding assays are carried out using membranes from stably transfected RBL cells. RBL stable clones are found to more consistently express high levels of GnRH receptor and are therefore used for subsequent binding studies as well as Ca^++ flux and inositol phosphate accumulation assays. Transiently transfected COS-7 cells are used for preparation of membranes containing GnRH receptors from multiple species (as well as those of mutant receptors for other studies) because of the convenience for rapidly analyzing multiple receptors.
HEK293 cells stably transfected with the human GnRH receptor are grown for two days after achieving confluence then are harvested by striking tissue culture flasks against a firm surface. Cells are collected by centrifugation at 1000 g for 5 minutes. Cell pellets are resuspended in 5% sucrose and homogenized using a polytron homogenizer for two 15 second homogenization steps. Cell homogenates are then centrifuged for 5 minutes at 3000 g to remove nuclei and the supernatant subsequently centrifuged for 30 minutes at 44,000 g to collect the membrane fraction. The membrane pellet is resuspended in GnRH binding buffer (10 mM HEPES, pH 7.5, 150 mM NaCl and 0.1% BSA) and aliquots immediately snap-frozen in liquid nitrogen and stored at −80° C. Protein content of the membrane suspension is determined using the Bio-Rad protein assay kit (Bio-Rad).
RBL cells stably transfected with the human GnRH receptor are grown to 80% confluency prior to harvesting. The cells are incubated at 37° C. for 10 min in 0.5 mM EDTA/PBS (Ca^++, Mg^++ free), and are dislodged from the plate by gentle rapping of the flasks. Cells are collected and pelleted by centrifugation at 1000 g for 5 minutes. Cell pellets are resuspended in buffer (DPBS supplemented with 10 mM MgCl2, 2 mM EGTA, pH=7.4), and cell lysis is performed using a pressure cell and applying N2 at a pressure of 900 psi for 30 min at 4° C. Unbroken cells and larger debris were removed by centrifugation at 1200 g for 10 min at 4° C. The cell membrane supernatant is then centrifuged at 45,000 g and the resulting membrane pellet is resuspended in assay buffer and homogenized on ice using a tissue homogenizer. Protein concentrations are determined using the Coomassie Plus Protein Reagent kit. Membranes are aliquoted and stored at −80° C. until ready for use.
COS-7 cells transiently transfected with GnRH receptors from different species (human, macaque, dog, rabbit, rat) or mutant GnRH receptors are prepared by bulk electroporation. COS-7 cells are obtained from American Type Cell Culture (Manassas, Va.) and are maintained in Dulbeccos's modified Eagle's medium (DMEM) (MediaTech Inc., Herndon, Va.) containing 10% fetal bovine serum, 10 mM HEPES, 2 mM L-glutamine, 1 mM sodium pyruvate, 50 U/mL penicillin, 50 μg/mL streptomycin. COS-7 cells are seeded in 500 cm^2 tissue culture plates and grown to confluency prior to cell transfection. […]

Compound | Ki [nM]
CN(C(=O)c1ccc(Cl)c(-c2nc3ccccc3cc2C#N)c1)c1ccccc1OCCCO [10-2, 4-chloro-3-(3-cyano-quinolin-2-yl)-N-[2-(3-hydroxy-propoxy)-phenyl]-N-methyl-benzamide] | ≤ 100
COc1c(Cl)cccc1N(C)C(=O)c1ccc(Cl)c(-c2cnc(Cl)cc2C)c1 [2-42] | ≤ 100
CN(C(=O)c1ccc(Cl)c(-c2ncc(Cl)cc2Cl)c1)c1cccc(F)c1 [19-3] | ≤ 100
COc1ccccc1N(C)C(=O)c1ccc(Cl)c(-c2ncc(Cl)cc2C)c1 [2-57] | ≤ 100
COC(=O)CCCOc1cccc(C)c1N(C)C(=O)c1ccc(Cl)c(-c2cnc(Cl)cc2C)c1 [3-5] | ≤ 100
Cc1cc(C#N)ncc1-c1cc(C(=O)N(C)c2cccc(F)c2OCCCC(=O)O)ccc1Cl [4-9] | ≤ 100
COc1cccc(C)c1N(C)C(=O)c1ccc(Cl)c(-c2cnc(Cl)cc2Cl)c1 [2-29] | ≤ 100
Cc1cc(Cl)cnc1-c1cc(C(=O)N(C)c2c(C)cccc2C)ccc1Cl [2-63] | ≤ 100
Cc1cc(C(F)(F)F)ncc1-c1cc(C(=O)N(C)c2ccccc2OCCCC(=O)O)ccc1Cl [4-6] | ≤ 100
COc1ccccc1N(C)C(=O)c1ccc(Cl)c(-c2ccc(C(F)(F)F)nc2)c1 [2-11] | ≤ 100
Cc1cnc(-c2cc(C(=O)N(C)c3c(C)cccc3C)ccc2Cl)c(Cl)c1 [2-64] | ≤ 100
Cc1cc(C(F)(F)F)nc(=O)n1-c1cc(C(=O)N(C)c2ccccc2F)ccc1Cl [30-16] | ≤ 100
Cc1c(Cl)cccc1N(C)C(=O)c1ccc(Cl)c(-n2c(C)cc(C(F)(F)F)nc2=O)c1 [30-12] | ≤ 100
Cc1cc(Cl)c(-c2cc(C(=O)N(C)c3cccc(C(F)(F)F)c3C)ccc2Cl)c(C)n1 [2-25] | ≤ 100
COc1ccccc1N(C)C(=O)c1ccc(Cl)c(-c2cnc(C(N)=O)cc2C)c1 [24-2, 5-{2-chloro-5-[(2-methoxy-phenyl)-methyl-carbamoyl]-phenyl}-4-methyl-pyridine-2-carboxylic acid amide] | ≤ 100
COc1ccccc1N(C)C(=O)c1ccc(Cl)c(-c2nc3ccccc3cc2C=O)c1 [2-48] | ≤ 100
COc1ccccc1N(C)C(=O)c1ccc(Cl)c(-n2c(C)cc(C(F)(F)F)nc2=O)c1 [30-15] | ≤ 100
Cc1cccc(OCCC(=O)O)c1N(C)C(=O)c1ccc(Cl)c(-c2ccc(C(F)(F)F)cc2C#N)c1 [11-8] | ≤ 100
Cc1cccc(OCCC(=O)O)c1N(C)C(=O)c1ccc(Cl)c(-c2cnc(C(F)(F)F)cc2C#N)c1 [11-7] | ≤ 100
COc1ccccc1N(C)C(=O)c1ccc(Cl)c(-c2ccc(Cl)cc2Cl)c1 [2-54] | ≤ 100
Cc1cc(Cl)c(-c2cc(C(=O)N(C)c3cccc(C)c3C)ccc2Cl)cn1 [2-22] | ≤ 100
COc1ccccc1N(C)C(=O)c1ccc(Cl)c(-c2cnc(Cl)cc2Cl)c1 [2-3] | ≤ 100
Cc1cc(Br)ncc1-c1cc(C(=O)N(C)c2ccccc2F)ccc1Cl [2-39] | ≤ 100
COc1cccc(C)c1N(C)C(=O)c1ccc(Cl)c(-n2c(C)cc(C(F)(F)F)nc2=O)c1 [30-10] | ≤ 100
Cc1ccccc1N(C)C(=O)c1cc(-c2nc3ccccc3cc2C#N)c(Cl)cc1OCCCC(=O)O [20-3] | ≤ 100
Cc1ccccc1N(C)C(=O)c1cc(-c2cnc(Cl)cc2Cl)c(Cl)cc1OCCCC(=O)O [20-2] | ≤ 100
COc1ccccc1N(C)C(=O)c1ccc(Cl)c(-c2ccc(C#N)nc2)c1 [2-2, 4-chloro-3-(6-cyano-pyridin-3-yl)-N-(2-methoxy-phenyl)-N-methyl-benzamide] | ≤ 100
CN(C(=O)c1ccc(Cl)c(-c2cnc(C(F)(F)F)cc2C#N)c1)c1cccc(F)c1OCCCC(=O)O [4-12] | ≤ 100
Cc1cc(C(F)(F)F)nc(=O)n1-c1cc(C(=O)N(C)c2cccc(F)c2)ccc1Cl [30-17] | ≤ 100

More lines, now with the values ahead:

Ki [nM] | Compound
≤ 100 | CN(C(=O)c1ccc(Cl)c(-c2nc3c(F)c(F)c(F)c(F)c3cc2C#N)c1)c1ccccc1OCCCC(=O)O [33-3]
≤ 100 | COc1ccccc1N(C)C(=O)c1cc(-c2cnc(C(F)(F)F)cc2C#N)c(Cl)cc1OCC(N)CO (stereo not shown) [42-18]
≤ 100 | COc1ccccc1N(C)C(=O)c1cc(-c2cnc(C(F)(F)F)cc2C#N)c(Cl)cc1OCCCc1cnoc1 [46-1, 4-Chloro-5-(4-cyano-6-trifluoromethyl-pyridin-3-yl)-2-(3-isoxazol-4-yl-propoxy)-N-(2-methoxyphenyl)-N-methyl-benzamide]
≤ 100 | COc1cc(Cl)c(-c2cnc(C(F)(F)F)cc2C#N)cc1C(=O)N(C)c1cc(F)ccc1C [39-11]
≤ 100 | COc1ccccc1N(C)C(=O)c1cc(-c2cnc(C(F)(F)F)cc2C#N)c(Cl)cc1OCCN [42-16]
≤ 100 | CN(C(=O)c1cc(-c2cnc(C(F)(F)F)cc2C#N)c(Cl)cc1OCCCC(=O)O)c1ccccc1 [34-8]
≤ 100 | COc1ccccc1N(C)C(=O)c1cc(-c2cnc(C(F)(F)F)cc2C#N)c(Cl)cc1OCCN1CCOCC1 [42-2]
≤ 100 | COc1cccc(N(C)C(=O)c2cc(-c3cnc(C(F)(F)F)cc3C#N)c(Cl)cc2OCCCC(=O)O)n1 [34-19]
≤ 100 | COc1cc(Cl)c(-c2cnc(C(F)(F)F)cc2C#N)cc1C(=O)N(C)c1ccccn1 [39-14]
≤ 100 | COc1ccccc1N(C)C(=O)c1cc(-c2cnc(C(F)(F)F)cc2C#N)c(Cl)cc1OCCCC(=O)O [34-1, 4-{5-chloro-4-(4-cyano-6-trifluoromethyl-pyridin-3-yl)-2-[(2-methoxy-phenyl)-methyl-carbamoyl]-phenoxy}-butyric acid]
≤ 100 | CN(C(=O)c1ccc(Cl)c(-c2nc3c(F)cccc3cc2C#N)c1)c1ccccc1OCCCC(=O)O [33-2]
≤ 100 | CN(C(=O)c1ccc(Cl)c(-c2cnc(C(F)(F)F)cc2C#N)c1)c1ccccc1OCCC(=O)N1CCNCC1 [53-2, 4-Chloro-3-(4-cyano-6-trifluoromethyl-pyridin-3-yl)-N-methyl-N-[2-(3-oxo-3-piperazin-1-yl-propoxy)-phenyl]-benzamide]
≤ 100 | COCc1ccccc1N(C)C(=O)c1cc(-c2cnc(C(F)(F)F)cc2C#N)c(Cl)cc1OCCCC(=O)O [34-5]
≤ 100 | COc1cc(Cl)c(-c2cnc(C(F)(F)F)cc2C#N)cc1C(=O)N(C)c1ccccc1OC [38-1, 4-Chloro-5-(4-cyano-6-trifluoromethyl-pyridin-3-yl)-2-methoxy-N-(2-methoxy-phenyl)-N-methyl-benzamide]
≤ 100 | CN(CC1CC1)C(=O)c1cc(-c2cnc(C(F)(F)F)cc2C#N)c(Cl)cc1OCCCC(=O)O [34-25]
≤ 100 | CN(C(=O)c1cc(-c2cnc(C(F)(F)F)cc2C#N)c(Cl)cc1OCCCC(=O)O)c1ccccn1 [34-18]
≤ 100 | COCCN(C)C(=O)c1cc(-c2cnc(C(F)(F)F)cc2C#N)c(Cl)cc1OCCCC(=O)O [34-24]
≤ 100 | COc1ccccc1N(C)C(=O)c1cc(-c2cnc(C(F)(F)F)cc2C#N)c(Cl)cc1OCCc1ccccn1 [42-4]
≤ 100 | COc1ccccc1N(C)C(=O)c1cc(-c2cnc(C(F)(F)F)cc2C#N)c(Cl)cc1OCCCc1ccn(C)n1 [42-14]
≤ 100 | COc1ccccc1N(C)C(=O)c1cc(-c2cnc(C(F)(F)F)cc2C#N)c(Cl)cc1OCCCc1nnn[nH]1 [35-1, 4-Chloro-5-(4-cyano-6-trifluoromethyl-pyridin-3-yl)-N-(2-methoxy-phenyl)-N-methyl-2-[3-(1H-tetrazol-5-yl)-propoxy]-benzamide]
